Entries after “also recorded” stand apart in the source; their conditions may differ.
Tests used:
[1] = system: SSTR2; details: cited from earlier work
[2] = system: SSTR5; test: Differential expression of SSTR5 (qRT-PCR) in iPSC generated pituitary organoids; format: cell-based, human; details: for differential expression of SSTR5: iPSCctrl organoids, compound alone, 48 h, FIG. 5C, D; for effect on mifepristone-induced SSTR5 expression / effect on relacorilant-induced SSTR5 expression: iPSC organoids; for effect on mifepristone-induced SSTR5 expression: pretreatment 2 h before mifepristone (500 nM); for effect on relacorilant-induced SSTR5 expression: pretreatment 2 h before relacorilant (500 nM)
Protocol: (§1) Sonic Hedgehog (SHH) was withdrawn from the organoid growth media 16 hours prior to treatment. The experimental treatment groups included: vehicle (Veh), mifepristone (500 nM, Selleckchem S2606), GANT61 (5 μM, Stemcell Technologies 73692), ketoconazole (Keto, 10 μM, Selleckchem S1353), pasireotide (Pas, 100 nM, Target Mol TP2207-SB001), octreotide (Oct, 100 nM, Selleckchem P1017), mifepristone plus GANT61, mifepristone plus Keto, mifepristone plus Pas, relacorilant (500 nM, Corcept Therapeutics CORT125134), relacorilant plus Pas, relacorilant plus Oct, or dexamethasone (Dexa, 100 nM, SIGMA S4902). In the combination treatments, cultures were pretreated with the GANT61, Keto, Pas or Oct for 2 hours prior to treatment with mifepristone or Rela. PitNET tissue derived organoids hPITO36, hPITO37, hPITO38, hPITO39, and hPITO40 were treated with the following experimental conditions: Vehicle (1), pasireotide (2), relacorilant (3), relacorilant & pasireotide (4), mifepristone (5), mifepristone & pasireotide (6). The IC50 values used for each hPITO line for each drug were determined based on dose responses (FIG. 12). All organoid cultures were treated for 48 hours prior to analysis.
(§2) RNA was extracted from PitNET tissue or iPSC generated organoids using TRI Reagent® (Molecular Research Center Inc TR118) and the High Capacity cDNA Reverse Transcription Kit (Applied Biosystems, Foster City, CA) was used for cDNA synthesis of RNA following the recommended protocol. For each sample, 60 ng RNA was reverse transcribed to yield approximately […] total cDNA that was then used for the qRT-PCR. Pre-designed real-time polymerase chain reaction assays were purchased for the following genes: TPit (Thermo Fisher Scientific 4331182 Hs00193027), SF1 (Thermo Fisher Scientific 4331182 Hs00610436), SSTR2 (Thermo Fisher Scientific 4331182 Hs00265624_s1), SSTR5 (Thermo Fisher Scientific 4331182 Hs00990407_s1), POMC (Thermo Fisher Scientific 4331182 Hs01596743_ml), hPRT (Thermo Fisher Scientific 4331182 Hs02800695_ml), and FKBP5 (Thermo Fisher Scientific 4331182 Hs01561006_m1). Polymerase chain reaction amplifications were performed in a total volume of 20 μL containing 20× TaqMan Expression Assay primers, 2× TaqMan Universal Master Mix (Applied Biosystems, TaqMan® Gene Expression Systems), and cDNA template. Each polymerase chain reaction amplification was performed in triplicate wells in a StepOne Real-Time PCR System (Applied Biosystems) by using the following conditions: 500C 2 minutes, 95° C. 10 minutes, 95° C. 15 seconds (denature) and 60° C. 1 minute (anneal/extend) for 40 cycles. Fold change was calculated as the following: (Ct-Ct high)=n target, 2ntarget/2nHPRT=fold change where Ct=threshold cycle. The results were expressed as average fold change in or differential gene expression relative to control, with HPRT used as an internal control according to Livak and Schmittgen.

[3] = system: SSTR2; test: Differential expression of SSTR2 (qRT-PCR) in iPSC generated pituitary organoids; format: cell-based, human; details: for differential expression of SSTR2: iPSCctrl organoids, compound alone, 48 h, FIG. 5C, D; for effect on mifepristone-induced SSTR2 expression / effect on relacorilant-induced SSTR2 expression: iPSC organoids; for effect on mifepristone-induced SSTR2 expression: pretreatment 2 h before mifepristone (500 nM); for effect on relacorilant-induced SSTR2 expression: pretreatment 2 h before relacorilant (500 nM)
Protocol: as §1, §2

[4] = system: FKBP5; test: FKBP5 expression (GR target gene, qRT-PCR) in PitNET organoids; format: cell-based, human; details: PitNET organoids (iPSCctrl, iPSCUSP48MV, iPSCUSP8), 48 h, FIG. 16A-C
Protocol: as §1
as §2, with “10 minutes, 95° C. 15 seconds (denature) and 60° C. 1 minute (anneal/extend) for 40 cycles.” left out

[5] = system: Hedgehog pathway; details: by blocking activation of SMO or GLI1/GLI2; cited from earlier work
[6] = system: iPSC^USP48MV organoids; test: EdU uptake (proliferation) in iPSCUSP48MV organoids; format: cell-based, human; details: 100 nM pretreatment 2 h before mifepristone
Protocol: (§3) iPSCs were stained for pituitary specific hormones including luteinizing hormone (LH), follicle-stimulating hormone (FSH), growth hormone (GH), prolactin (PRL), ACTH, cytokeratin 8/18 (CAM5.2), pituitary transcription factor PIT-1 and neuroendocrine marker Synaptophysin (Table 5). Cultures were immunostained for proliferation marker EdU (Click-IT EdU Alexa Fluor 555 Imaging Kit, Thermo Fisher Scientific C10338). Antibody dilutions were determined based on manufacturer guidelines and antibody titration (Table 5). Staining was conducted according to previously published protocols. Briefly, organoids and iPSCs grown in 8-well glass bottom chamber slides were fixed using 3.7% formaldehyde, washed with DPBS, permeabilized with 0.5% Triton X-100 (SIGMA X-100, PBS-T, 20 min at room temperature), washed with 0.01% PBS-T, and blocked with 2% donkey serum (Jackson Immuno Research 017-000-121) for 1 hour at room temperature. After blocking, primary antibodies were added and incubated overnight at 4° C. Slides were washed with 0.01% PBS-T and incubated with secondary antibodies (Table 5) with Hoechst (Thermo Fisher Scientific H1399) for 1 hour at room temperature. Organoids were washed and stored in PBS at 4° C. until microscopic analysis. High content confocal microscopy was performed using the Nikon Ti2-E Inverted Microscope (with a Crest X-Light V2 L-FOV Spinning Disk Confocal) at the University of Arizona Cancer Center, or a ZEISS LSM880 34 channel Laser Scanning Confocal Microscope at University of Arizona Marley Imaging Core. Fluorescence intensity was quantified as the percentage of marker-positive cells versus total cells, using Nikon Elements Software (Version 5.21.05). Proliferation for each iPSC line was quantified as the percentage of EdU-positive cells versus total cells.
as §1, with “PitNET tissue derived organoids hPITO36, hPITO37, hPITO38, hPITO39, and hPITO40 were treated with the following experimental conditions: Vehicle (1), pasireotide (2), relacorilant (3), relacorilant & pasireotide (4), mifepristone (5), mifepristone & pasireotide (6).” left out, “All organoid cultures were treated for 48 hours prior to analysis.” left out

[7] = system: iPSC^USP48MV organoids; test: ACTH secretion ELISA, iPSCUSP48 organoids; format: cell-based, human; details: iPSCUSP48, 100 nM pretreatment 2 h before mifepristone, FIG. 7G
Protocol: as §1
(§4) Organoid conditioned media was collected and ACTH secretion using an ELISA according to the manufacturer's protocol (Novus Biologicals Human ACTH ELISA Kit NBP2-66401). The optical density was measured at a wavelength of 450 nm, and ACTH concentration (pg/mL) was interpolated using a standard curve with a 4-parameter logistic regression analysis using GraphPad Prism (v9.3.1).

[8] = system: iPSC^ctrl organoids; test: ACTH secretion ELISA, iPSCctrl organoids; format: cell-based, human; details: 100 nM pretreatment 2 h before mifepristone, FIG. 6G
Protocol: as §1, §4

[9] = system: iPSC^ctrl organoids; test: EdU uptake (proliferation) in iPSCctrl organoids; format: cell-based, human; details: 100 nM pretreatment 2 h before mifepristone
Protocol: as §3
as §1, with “PitNET tissue derived organoids hPITO36, hPITO37, hPITO38, hPITO39, and hPITO40 were treated with the following experimental conditions: Vehicle (1), pasireotide (2), relacorilant (3), relacorilant & pasireotide (4), mifepristone (5), mifepristone & pasireotide (6).” left out, “All organoid cultures were treated for 48 hours prior to analysis.” left out

SMILES	binding to / activation of SSTR2 [1]	differential expression of SSTR5 [2]	differential expression of SSTR2 [3]	effect on mifepristone-induced SSTR5 expression [2]	effect on relacorilant-induced SSTR5 expression [2]	effect on mifepristone-induced SSTR2 expression [3]	effect on relacorilant-induced SSTR2 expression [3]	cell proliferation [5]	cell viability [5]	further results
CC(C)[C@@H]1NC(=O)[C@H](CCCCN)NC(=O)[C@@H](Cc2c[nH]c3ccccc23)NC(=O)[C@H](Cc2ccc(O)cc2)NC(=O)[C@@H](NC(=O)[C@H](N)Cc2ccc3ccccc3c2)CSSC[C@@H](C(=O)N[C@H](C(N)=O)[C@@H](C)O)NC1=O [lanreotide]	preferentially binds or activates somatostatin receptor type 2 (SSTR2)									
C[C@@H]1C[C@H]2[C@@H]3CCC4=CC(=O)C=C[C@]4(C)[C@@]3(F)[C@@H](O)C[C@]2(C)[C@@]1(O)C(=O)CO [dexamethasone]		significantly decreased expression	significantly decreased expression							differential expression of FKBP5 [4]: significant induction in gene expression
CC(=O)N1CCN(c2ccc(OCC3COC(Cn4ccnc4)(c4ccc(Cl)cc4Cl)O3)cc2)CC1 (stereo not shown) [ketoconazole]		no effect	no effect	no effect; also recorded: failed to block the induction	no effect; also recorded: failed to block the induction	no effect; also recorded: failed to block the induction	failed to block the induction	reduce cell proliferation and cell viability	reduce cell proliferation and cell viability	effect on mifepristone-induced SSTR5 expression ([2]; listed as ketoconozaole): no effect; effect on relacorilant-induced SSTR5 expression ([2]; listed as ketoconozaole): no effect; effect on mifepristone-induced SSTR2 expression ([3]; listed as ketoconozaole): no effect; effect on relacorilant-induced SSTR2 expression ([3]; listed as ketoconozaole): no effect
CN(C)c1ccccc1CN1CCCN(Cc2ccccc2N(C)C)C1c1ccncc1 [GANT61]		no effect	no effect	blocks SSTR2 and SSTR5 expression; also recorded: reduced; also recorded: inhibited	reduced the induction of SSTR5 expression; also recorded: blocks SSTR2 and SSTR5 expression; also recorded: inhibited	reduced the induction of SSTR2 expression; also recorded: blocks SSTR2 and SSTR5 expression; also recorded: inhibited	blocks SSTR2 and SSTR5 expression; also recorded: inhibited	reduce cell proliferation and cell viability	reduce cell proliferation and cell viability	
C[C@@H](O)[C@@H]1NC(=O)[C@H](CCCCN)NC(=O)[C@@H](Cc2c[nH]c3ccccc23)NC(=O)[C@H](Cc2ccccc2)NC(=O)[C@@H](NC(=O)[C@H](N)Cc2ccccc2)CSSC[C@@H](C(=O)N[C@H](CO)[C@@H](C)O)NC1=O [octreotide]	preferentially binds or activates somatostatin receptor type 2 (SSTR2)									effect on proliferative response to mifepristone (EdU uptake) [6]: inhibited; effect on ACTH secretion in response to mifepristone [7]: inhibition by octreotide was greater that pasireotide; effect on ACTH secretion in response to mifepristone ([7]; listed as Oct): significantly reduced ACTH secretion; effect on ACTH secretion in response to mifepristone [8]: inhibition by octreotide was greater that pasireotide; effect on ACTH secretion in response to mifepristone ([8]; listed as Oct): significantly reduced ACTH secretion; effect on proliferative response to mifepristone (EdU uptake) [9]: inhibited
